Experiments:
[1] = biological target: T1, Fibroblast growth factor receptor 1 (Homo sapiens, UniProt P11362); experiment: Binding affinity to N-terminal 6xHis-tagged human recombinant FGFR1 (458 to 765) by isothermal titration calorimetric analysis
[2] = biological target: T1, Fibroblast growth factor receptor 1; experiment: Inhibition of N-terminal GST-tagged human recombinant FGFR1 (456 to 765) after 40 mins by mobility shift assay

T1 sequence (P11362 whole entry): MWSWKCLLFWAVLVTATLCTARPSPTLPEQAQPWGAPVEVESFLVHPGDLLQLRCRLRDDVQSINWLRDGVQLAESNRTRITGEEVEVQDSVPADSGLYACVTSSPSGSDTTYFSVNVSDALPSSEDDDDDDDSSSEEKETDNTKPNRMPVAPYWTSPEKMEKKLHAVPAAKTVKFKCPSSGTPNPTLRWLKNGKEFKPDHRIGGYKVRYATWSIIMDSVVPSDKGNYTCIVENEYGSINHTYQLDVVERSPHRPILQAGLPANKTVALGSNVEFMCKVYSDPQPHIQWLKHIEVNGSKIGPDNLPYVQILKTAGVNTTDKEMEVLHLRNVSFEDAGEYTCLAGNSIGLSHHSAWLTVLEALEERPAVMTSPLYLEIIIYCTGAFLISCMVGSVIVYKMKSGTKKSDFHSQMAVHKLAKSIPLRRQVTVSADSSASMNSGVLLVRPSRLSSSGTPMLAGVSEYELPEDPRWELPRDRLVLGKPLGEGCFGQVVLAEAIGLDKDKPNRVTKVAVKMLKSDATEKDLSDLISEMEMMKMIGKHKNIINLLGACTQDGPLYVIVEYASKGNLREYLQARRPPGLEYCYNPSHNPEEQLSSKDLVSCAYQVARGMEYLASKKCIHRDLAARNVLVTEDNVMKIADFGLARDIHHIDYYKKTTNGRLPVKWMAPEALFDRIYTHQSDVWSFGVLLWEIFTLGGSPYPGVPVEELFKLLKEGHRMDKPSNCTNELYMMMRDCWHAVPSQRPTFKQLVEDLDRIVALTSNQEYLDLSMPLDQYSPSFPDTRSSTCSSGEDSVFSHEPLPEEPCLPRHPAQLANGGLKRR

Row | SMILES | Kd [1] [nM] | IC50 ([2]; read-out: IC50) [nM] | IC50 ([2]; read-out: pIC50 (converted)) [nM]
1 | COc1cc(CCc2cc(Nc3ccnc(NCc4cc(C)no4)n3)n[nH]2)cc(OC)c1 | 5.8 | 60 | –
2 | COc1ccc(CCc2cc(Nc3ccnc(NCc4cc(C)no4)n3)n[nH]2)cc1OC | 447 | 20000 | 100

Reference: ChEMBL document CHEMBL3108753, “FGFR1 Kinase Inhibitors: Close Regioisomers Adopt Divergent Binding Modes and Display Distinct Biophysical Signatures” (ACS Med Chem Lett, 2014)
